Test results as given in US20050234046A1 (Kalypsys, Inc., priority 2004, published 2005).

Legend:
Experiment in all cases: Transient transfection (transactivation) assay in CV-1 cells, GAL4-PPAR chimera, luciferase reporter
Assay type in all cases: cell-based
PPAR gamma = target: T1, PPAR gamma (Homo sapiens, UniProt P37231)
T1 construct: expressed in transfected cells; host or cells: CV-1 cells
T1 sequence (P37231 238-503 limits assumed): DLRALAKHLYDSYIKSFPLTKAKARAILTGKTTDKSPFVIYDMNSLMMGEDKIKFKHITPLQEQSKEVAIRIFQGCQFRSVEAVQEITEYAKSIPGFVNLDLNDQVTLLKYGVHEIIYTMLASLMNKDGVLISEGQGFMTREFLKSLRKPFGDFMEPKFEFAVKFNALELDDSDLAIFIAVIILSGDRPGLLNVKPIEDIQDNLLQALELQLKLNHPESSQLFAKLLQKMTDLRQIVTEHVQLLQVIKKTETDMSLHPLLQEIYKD

PPAR alpha = target: T2, PPAR alpha (Homo sapiens, UniProt Q07869)
T2 construct: expressed in transfected cells; host or cells: CV-1 cells
T2 sequence (Q07869 239-466 limits assumed): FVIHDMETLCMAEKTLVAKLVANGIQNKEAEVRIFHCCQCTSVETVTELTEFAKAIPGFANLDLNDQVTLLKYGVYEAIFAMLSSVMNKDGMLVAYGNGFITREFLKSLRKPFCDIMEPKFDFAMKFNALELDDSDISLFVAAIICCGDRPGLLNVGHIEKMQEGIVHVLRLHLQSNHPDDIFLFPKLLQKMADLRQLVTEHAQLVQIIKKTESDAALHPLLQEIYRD
Description: Compounds may be screened for functional potency in transient transfection assays in CV-1 cells or other cell types for their ability to activate the PPAR subtypes (transactivation assay). A previously established chimeric receptor system was utilized to allow comparison of the relative transcriptional activity of the receptor subtypes on the same synthetic response element and to prevent endogenous receptor activation from complicating the interpretation of results. See, for example; Lehmann, J. M.; Moore, L. B.; Smith-Oliver, T. A; Wilkinson, W. O.; Willson, T. M.; Kliewer, S. A., An antidiabetic thiazolidinedione is a high affinity ligand for peroxisome proliferatur-activated receptor γ (PPARγ), J. Biol. Chem., 1995, 270, 12953-6. The ligand binding domains for murine and human PPAR-alpha, PPAR-gamma, and PPAR-delta are each fused to the yeast transcription factor GAL4 DNA binding domain. CV-1 cells were transiently transfected with expression vectors for the respective PPAR chimera along with a reporter construct containing four or five copies of the GAL4 DNA binding site driving expression of luciferase. After 8-16 h, the cells are replated into multi-well assay plates and the media is exchanged to phenol-red free DME medium supplemented with 5% delipidated calf serum. 4 hours after replating, cells were treated with either compounds or 1% DMSO for 20-24 hours. Luciferase activity was then assayed with Britelite (Perkin Elmer) following the manufacturer's protocol and measured with either the Perkin Elmer Viewlux or Molecular Devices Acquest Xsee, for example, Kliewer, S. A., et. al. Cell 1995, 83, 813-819). Rosiglitazone is used as a positive control in the hPPAR-γ assay. Wy-14643 and GW7647 is used as a positive control in the hPPAR-α assay. GW501516 is used as the positive control in the hPPAR-δ assay.
Compounds of Examples 1-233 were assayed to measure their biological activity with respect to their EC50 values and efficacy for modulating PPAR-alpha, PPAR-gamma, and PPAR-delta as set forth in Table 3.

PPAR delta = target: T3, PPAR delta (Homo sapiens, UniProt Q03181)
T3 construct: expressed in transfected cells; host or cells: CV-1 cells
T3 sequence (Q03181 211-439 limits assumed): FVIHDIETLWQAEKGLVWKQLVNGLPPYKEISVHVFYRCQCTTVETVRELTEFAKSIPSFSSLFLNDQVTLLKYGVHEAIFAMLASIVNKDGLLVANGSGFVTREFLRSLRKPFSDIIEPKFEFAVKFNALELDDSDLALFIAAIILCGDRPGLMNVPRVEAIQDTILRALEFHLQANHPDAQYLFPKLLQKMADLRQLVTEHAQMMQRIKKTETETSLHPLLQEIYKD

Row | Compound | EC50 (PPAR gamma) | EC50 (PPAR alpha) | EC50 (PPAR delta) | PPAR gamma EC50 (PPAR gamma)
1 | Cc1ccc(S(=O)(=O)N2CCN(c3ccc(C(F)(F)F)cn3)C(C)C2)cc1CC(=O)O (stereo not drawn) [Example 23, [2-Methyl-5-[3-methyl-4-(5-trifluoromethyl-pyridin-2-yl)-piperazine-1-sulfonyl]-phenyl}-acetic acid] | < 5 µM | 5 to 100 µM | < 5 µM | 
2 | Cc1ccc(S(=O)(=O)N2[C@H](C)CN(c3nc4ccccc4o3)C[C@@H]2C)cc1CC(=O)O [Example 24, [5-(4-Benzooxazol-2-yl-2,6-dimethyl-piperazine-1-sulfonyl)-2-methyl-phenyl]-acetic acid] | > 100 µM | > 100 µM | 5 to 100 µM | 
3 | Cc1ccc(S(=O)(=O)N2[C@H](C)CN(c3nc4ccccc4s3)C[C@@H]2C)cc1CC(=O)O [Example 25, [5-(4-Benzothiazol-2-yl-2,6-dimethyl-piperazine-1-sulfonyl)-2-methyl-phenyl]-acetic acid] | > 100 µM | > 100 µM | 5 to 100 µM | 
4 | Cc1ccc(S(=O)(=O)N2CCCN(c3nc4ccccc4o3)CC2)cc1CC(=O)O [Example 26, [5-(4-Benzooxazol-2-yl-[1,4]diazepane-1-sulfonyl)-2-methyl-phenyl]-acetic acid] | > 100 µM | > 100 µM | 5 to 100 µM | 
5 | Cc1ccc(S(=O)(=O)N2CCCN(c3nc4ccccc4s3)CC2)cc1CC(=O)O [Example 27, [5-(4-Benzothiazol-2-yl-[1,4]diazepane-1-sulfonyl)-2-methyl-phenyl]-acetic acid] | 5 to 100 µM | > 100 µM | 5 to 100 µM | 
6 | Cc1ccc(S(=O)(=O)N2CCN(c3ccc(C#N)cn3)CC2)cc1CC(=O)O [Example 28, {5-[4-(5-Cyano-pyridin-2-yl)-piperazine-1-sulfonyl]-2-methyl-phenyl}-acetic acid] | > 100 µM | > 100 µM | < 5 µM | 
7 | COC(=O)[C@H]1CN(c2ccc(C(F)(F)F)cn2)CCN1S(=O)(=O)c1ccc(C)c(CC(=O)O)c1 [Example 29, (R)-1-(3-Carboxymethyl-4-methyl-benzenesulfonyl)-4-(5-trifluoromethyl-pyridin-2-yl)-piperazine-2-carboxylic acid methyl ester] | > 100 µM | > 100 µM | < 5 µM | 
8 | CCc1ccc(N2CCN(S(=O)(=O)c3ccc(C)c(CC(=O)O)c3)CC2)cc1 [Example 30, {5-[4-(4-Ethyl-phenyl)-piperazine-1-sulfonyl]-2-methyl-phenyl}-acetic acid] | 5 to 100 µM | 5 to 100 µM | < 5 µM | 
9 | Cc1ccc(S(=O)(=O)N2CCN(c3ccc(C(C)C)cc3)CC2)cc1CC(=O)O [Example 31] | 5 to 100 µM | < 5 µM | < 5 µM | 
10 | Cc1ccc(S(=O)(=O)N2CCN(c3ccc(C(C)(C)C)cc3)CC2)cc1CC(=O)O [Example 32, {5-[4-(4-tert-Butyl-phenyl)-piperazine-1-sulfonyl]-2-methyl-phenyl}-acetic acid] | 5 to 100 µM | < 5 µM | 5 to 100 µM | 
11 | Cc1ccc(S(=O)(=O)N2CCN(c3ccc(C(F)(F)F)cc3F)CC2)cc1CC(=O)O [Example 33] | < 5 µM | < 5 µM | < 5 µM | 
12 | Cc1ccc(S(=O)(=O)N2CCN(c3ccc(C(F)(F)F)c(F)c3)CC2)cc1CC(=O)O [Example 34, {5-[4-(3-Fluoro-4-trifluoromethyl-phenyl)-piperazine-1-sulfonyl]-2-methyl-phenyl}-acetic acid] |  | < 5 µM | < 5 µM | B/C
13 | Cc1ccc(S(=O)(=O)N2CCN(c3cc(C(F)(F)F)ccn3)CC2)cc1CC(=O)O [Example 35, {2-Methyl-5-[4-(4-trifluoromethyl-pyridin-2-yl)-piperazine-1-sulfonyl]-phenyl}-acetic acid] | 5 to 100 µM | 5 to 100 µM | < 5 µM | 
14 | Cc1ccc(S(=O)(=O)N2CCN(c3cccc(C(F)(F)F)n3)CC2)cc1CC(=O)O [Example 36, {2-Methyl-5-[4-(6-trifluoromethyl-pyridin-2-yl)-piperazine-1-sulfonyl]-phenyl}-acetic acid] | < 5 µM | 5 to 100 µM | < 5 µM | 
15 | COC(=O)[C@@H]1CN(c2ccc(C(F)(F)F)cn2)CCN1S(=O)(=O)c1ccc(C)c(CC(=O)O)c1 [Example 37, (S)-1-(3-Carboxymethyl-4-methyl-benzenesulfonyl)-4-(S-trifluoromethyl-pyridin-2-yl)-piperazine-2-carboxylic acid methyl ester] | > 100 µM | > 100 µM | < 5 µM | 
16 | Cc1ccc(S(=O)(=O)N2CCN(c3ccc(C(F)(F)F)cn3)C(C)(C)C2)cc1CC(=O)O [Example 38, {5-[3,3-Dimethyl-4-(5-trifluoromethyl-pyridin-2-yl)-piperazine-1-sulfonyl]-2-methyl-phenyl}-acetic acid] | < 5 µM | > 100 µM | < 5 µM | 
17 | Cc1ccc(S(=O)(=O)N2CCN(c3ccc(C(F)(F)F)cn3)CC2(C)C)cc1CC(=O)O [Example 39, {5-[2,2-Dimethyl-4-(5-trifluoromethyl-pyridin-2-yl)-piperazine-1-sulfonyl]-2-methyl-phenyl}-acetic acid] | < 5 µM | > 100 µM | < 5 µM | 
18 | COC[C@@H]1CN(S(=O)(=O)c2ccc(C)c(CC(=O)O)c2)CCN1c1ccc(C(F)(F)F)cn1 [Example 40] | > 100 µM | > 100 µM | 5 to 100 µM | 
19 | COC(=O)[C@H]1CN(S(=O)(=O)c2ccc(C)c(CC(=O)O)c2)CCN1c1ccc(C(F)(F)F)cn1 [Example 41, (R)-4-(3-Carboxymethyl-4-methyl-benzenesulfonyl)- -(5-trifluoromethyl-pyridin-2-yl)-piperazine-2-carboxylic acid methyl ester] | 5 to 100 µM | > 100 µM | < 5 µM | 
20 | COC(=O)[C@@H]1CN(S(=O)(=O)c2ccc(C)c(CC(=O)O)c2)CCN1c1ccc(C(F)(F)F)cn1 [Example 42, (S)-4-(3-Carboxymethyl-4-methyl-benzenesulfonyl)-1-(5-trifluoromethyl-pyridin-2-yl)-piperazine-2-carboxylic acid methyl ester] | 5 to 100 µM | > 100 µM | < 5 µM | 
21 | Cc1ccc(S(=O)(=O)N2CCC(c3nccs3)CC2)cc1CC(=O)O [Example 43, [2-Methyl-5-(4-thiazol-2-yl-piperidine-1-sulfonyl)-phenyl]-acetic acid] | > 100 µM | > 100 µM | > 100 µM | 
22 | Cc1ccc(S(=O)(=O)N2CCN(c3ncc(I)cn3)CC2)cc1CC(=O)O [Example 44, {5-[4-(5-Iodo-pyrimidin-2-yl)-piperazine-1-sulfonyl]-2-methyl-phenyl}-acetic acid] | < 5 µM | < 5 µM | < 5 µM | 
23 | Cc1ccc(S(=O)(=O)N2CC=C(c3ccc(C(F)(F)F)cc3)CC2)cc1CC(=O)O [Example 45, {2-Methyl-5-[4-(4-trifluoromethyl-phenyl)-3,6-dihydro-2H-pyridine-1-sulfonyl]-phenyl}-acetic acid] | 5 to 100 µM | 5 to 100 µM | < 5 µM | 
24 | Cc1ccc(S(=O)(=O)N2CCC(c3nc(C(F)(F)F)cs3)CC2)cc1CC(=O)O [Example 46, {2-Methyl-5-[4-(4-trifluoromethyl-thiazol-2-yl)-piperidine-1-sulfonyl]-phenyl}-acetic acid] | 5 to 100 µM | > 100 µM | > 100 µM | 
25 | Cc1ccc(S(=O)(=O)N2CCN(c3ncccn3)CC2)cc1CC(=O)O [Example 47] | 5 to 100 µM | > 100 µM | 5 to 100 µM | 
